Reference: ChEMBL document CHEMBL1201862, “PubChem BioAssay data set” (2004)
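Step 1: Grow cells in 96-well plates. Step 2: Expose to compound for 48 hours at 5 concentrations. Step 3: Interpolate endpoints linearly; if unreached, use highest concentration. GI50 is the concentration that inhibits growth by half.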 The source made the active and inactive calls. No stated cut-off is given here; in the data, active = GI50 up to about 1.1 µM and inactive = higher.

Tests used:
Assay in all cases: DTP human tumour cell line panel, 48 h
[1] = test system: HOP-18
[2] = test system: LXFL 529
[3] = test system: DLD-1
[4] = test system: KM-20L2
[5] = test system: M19-MEL
[6] = test system: DMS-273
[7] = test system: BT-549
[8] = test system: SNB-78
[9] = test system: RXF 631

Q: How did the GI50 [1] turn out when `[O-][S+]1c2ccccc2NC(c2ccc3ccccc3c2)CC1c1ccccc1` (stereo not drawn) was run?
A: > 100 µM (inactive)

Q: And the GI50 [2]?
A: 15.7 µM (inactive)

Q: What about the GI50 [3] of the same molecule?
A: 23.3 µM (inactive)

Q: What about the GI50 [4] of the same molecule?
A: 22.9 µM (inactive)

Q: And the GI50 [5]?
A: 20.9 µM (inactive)

Q: And the GI50 [6]?
A: 29.5 µM (inactive)

Q: How did the GI50 [7] turn out when `CCOC(=O)C1=CN/C(=C(/C)C(=O)OC)SC1C(=O)OCC` (stereo not drawn) was run?
A: > 90.6 µM (inactive)

Q: For `COCCCNc1c2ccccc2nc2ccccc12`, which GI50 [7] is on record?
A: 10.9 µM (inactive)

Q: How did the GI50 [1] turn out when `COc1ccc(N2C(=O)C3c4[nH]c5ccccc5c4C4CCCCC4C3C2=O)cc1` (stereo not drawn) was run?
A: 22.4 µM (inactive)

Q: And the GI50 [2]?
A: 22.2 µM (inactive)

Q: What about the GI50 [3] of the same molecule?
A: 49 µM (inactive)

Q: And the GI50 [8]?
A: 2.29 µM (inactive)

Q: What about the GI50 [4] of the same molecule?
A: 39.4 µM (inactive)

Q: And the GI50 [5]?
A: 28.8 µM (inactive)

Q: And the GI50 [6]?
A: 6.75 µM (inactive)

Q: `CC(=O)Nc1ccc(/C=c2\sc3nnc(CCC(=O)Nc4ccccc4Cl)n3c2=O)cc1` was tested. Which GI50 [9] did it give?
A: 32.9 µM (inactive)

Q: And the GI50 [1]?
A: 52.8 µM (inactive)

Q: And the GI50 [2]?
A: 30 µM (inactive)

Q: And the GI50 [3]?
A: 32.4 µM (inactive)

Q: What about the GI50 [8] of the same molecule?
A: 47.3 µM (inactive)

Q: What about the GI50 [5] of the same molecule?
A: 37.4 µM (inactive)

Q: With `Clc1ccc(-c2cn3c(nc4ccccc43)c(/C=C/c3cccs3)n2)cc1` as the molecule, how does the GI50 [7] read?
A: > 100 µM (inactive)

Q: Which GI50 [7] does the source give for `C[C@]12C[C@H](O)[C@H]3[C@@H](CCC4=CC(=O)CC[C@@]43C)[C@@H]1CC[C@@H]2c1csc(-c2ccccc2)n1` here?
A: > 100 µM (inactive)

Q: `CN(C)c1ccc(C2ON=C(c3ccccc3)N2C23CC4CC(CC(C4)C2)C3)cc1` (stereo not drawn) was tested. Which GI50 [7] did it give?
A: > 10 µM (inactive)

Q: `O=C(Nc1ccc(Cl)c(Cl)c1)OCCN1c2ccccc2Sc2ccccc21` was tested. Which GI50 [7] did it give?
A: > 10 µM (inactive)

Q: For `CS(=O)(=O)OCCCCOS(=O)(=O)CF`, which GI50 [7] is on record?
A: > 100 µM (inactive)

Q: How did the GI50 [7] turn out when `Fc1c(F)c(C(F)(F)F)c(F)c(F)c1N/N=C\c1c[nH]c2ccccc12` was run?
A: 1.5 µM (inactive)

Q: What does the source list for `O=c1cc(-c2ccccc2)[nH]c2c(Cl)cccc12`?
A: GI50 [9]: 51.9 µM (inactive); GI50 [2]: 31.5 µM (inactive); GI50 [3]: 20.5 µM (inactive); GI50 [4]: 14.4 µM (inactive); GI50 [5]: 9.18 µM (inactive); GI50 [6]: 7.11 µM (inactive)

Q: With `Cc1cccc(NC(=O)O/N=C(\Cl)C(C)C)c1` as the molecule, how does the GI50 [7] read?
A: 5.45 µM (inactive)

Q: With `C=C(C(=O)O)[C@@H]1C[C@@H](OC(C)=O)[C@]2(C)CC/C=C(\C)CCC[C@H](C)[C@H](O)[C@@H]1O2` as the molecule, how does the GI50 [7] read?
A: 25.1 µM (inactive)

Q: How did the GI50 [7] turn out when `CC(Br)CN1CCOCC1` (stereo not drawn) was run?
A: > 100 µM (inactive)

Q: With `Nc1nn2c(nc(N)c3c(N)n[nH]c32)c1/N=N\c1ccc(Br)cc1` as the molecule, how does the GI50 [7] read?
A: 2.92 µM (inactive)

Q: For `NC(=O)CCSC(CC(=O)c1ccc(Cl)cc1)c1ccc(Cl)cc1` (stereo not drawn), which GI50 [7] is on record?
A: 36.1 µM (inactive)

Q: With `Nc1n2nc(-c3ccccc3)sc2n[n+]1CC(=O)c1ccccc1` as the molecule, how does the GI50 [7] read?
A: 25.9 µM (inactive)

Q: Which GI50 [7] does the source give for `Cc1cc2nc(N3C(=O)/C(=C/Cc4ccco4)N=C3c3ccccc3)sc2cc1C` here?
A: 30.5 µM (inactive)

Q: For `Cc1cc(S(=O)(=O)NC2=Nc3ccccc3C(c3ccccc3)N2)c(S)cc1Cl` (stereo not drawn), which GI50 [7] is on record?
A: > 100 µM (inactive)

Q: How did the GI50 [7] turn out when `C=C(C)C[C@H](Sc1nc2ccccc2s1)[C@H](C)O` was run?
A: 40.2 µM (inactive)

Q: With `CC1CC2(S(=O)(=O)c3ccccc3)ON1CC2S(=O)(=O)c1ccccc1` (stereo not drawn) as the molecule, how does the GI50 [9] read?
A: > 100 µM (inactive)

Q: What about the GI50 [2] of the same molecule?
A: > 100 µM (inactive)

Q: And the GI50 [3]?
A: > 100 µM (inactive)

Q: And the GI50 [4]?
A: > 100 µM (inactive)

Q: What about the GI50 [5] of the same molecule?
A: > 100 µM (inactive)

Q: And the GI50 [6]?
A: > 100 µM (inactive)
